For assay [1], the target named is T1, proMMP9 (Homo sapiens, UniProt P14780).
T1 construct: endogenous in cells; host or cells: HFL-1 (ATCC CCL-153), TNFα-stimulated, with 30 nM human neutrophil elastase added
Description: Activation of proMMP9 by human fetal lung fibroblast (HFL-1) cultures (Western blot). It counts as cell-based. The settings on record: 3.3 μM, 30 nM elastase, 72 hrs, mAb-L51/82. How it is done:
Example 2 was assessed additionally for ability to block the maturation of proMMP9 to active MMP9 in cultures of human fetal lung fibroblasts (HFL-1, American Type Culture Collection #CCL-153). Unlike rat synoviocytes, HFL-1 cells were unable to process proMMP9 to the active form without addition of neutrophil elastase. […] Rather, the function of elastase in this assay may be to inactivate tissue inhibitors of matrix metalloproteinases (TIMPs) that repress endogenous pathways of MMP9 activation (Skold, Liu et al. 1999).
HLF-1 were maintained in monolayer culture in DMEM with 10% FCS and were used between passage numbers 5-15. HLF-1 were embedded in collagen gels as described for rat SCW synoviocytes (vida supra). Half mL gels containing 0.4 million cells were dislodged into wells of 12 well Costar plates containing 1 mL/well of DMEM adjusted to contain 0.05% BSA and 100 ng/mL human TNFα (R&D Systems Cat #210-TA/CF). After overnight culture (37° C. and 5% CO2) wells were adjusted to contain an additional 0.5 mL of DMEM containing 0.05% BSA and with or without 13.2 μM Example 2 (final concentration was 3.3 μM Example 2). Next, cultures were adjusted to contain 30 nM human elastase (Innovative Research). The plates were cultured an additional 72 hrs, at which time MMP9 secreted into the conditioned media was bound to gelatin-sepharose and evaluated by Western blot analysis as described for the rat synoviocyte cultures (vida supra). mAb-51/82 detected three forms of MMP9 in HFL-1 cultures.
A second experiment was performed to determine if the 80 kD form was mature active MMP9 and to determine the potency of Example 2 as an inhibitor of MMP9 maturation in this assay. HFL-1 cells embedded in collagen gels were cultured as described above in the presence of TNFα overnight and the cultures were then adjusted to contain 30 nM elastase and graded concentrations of Example 2 for an additional 72 hrs at which time MMP9 secreted into the conditioned media was bound to gelatin-sepharose and evaluated by Western blot analysis for active MMP9 using pAb-1246 raised against the N-terminal neoepitope of active MMP9 (Table 5). In the absence of Example 2, pAb-1246 readily detected MMP9 with an electrophoretic mobility of approximately 80 kD. […] Inhibition occurred over a dose range with an IC50 of approximately 0.3 μM Example 2.
A general note: A western blot detects proteins with antibodies after separation by electrophoresis.

Assay [2] deals with rats with SCW-induced arthritis. The assay is described as follows: Efficacy in rats with SCW-induced arthritis (ankle thickness, clinical scores). The settings on record: 5, 20, 50 mg/kg BID oral, Day 18-26. In kind it is in vivo, rat. How it is done: SCW PG-PS 10S (Beckton Dickinson Cat#210866) suspended in saline was vortexed for 30 seconds and sonicated for 3 min with a probe type sonicator prior to injection. Female Lewis (LEW/N) rats, 5-6 weeks of age (80-100 g) were injected (i.p.) with SCW PG-PS (15 μg of rhamnose/gram BW) in the lower left quadrant of the abdomen using a 1 mL syringe fitted with a 23-gauge needle. Control (disease-free) rats were treated in a similar manner with sterile saline. Control rats were sacrificed on day 5 and groups of SCW-injected rats were sacrificed on day 5 when acute inflammation was maximal or on day 18 when chronic inflammation was established.
To induce arthritis, Female Lewis (LEW/N) rats, 5-6 weeks of age (80-100 g) were injected (i.p.) with SCW PG-PS as described above. Eighteen days later, arthritis was well established. Calipers were used to measure the width (anterior to posterior surface) of the left and right hind ankles of each rat. Each ankle was measured 3 times and averaged, and treatment groups were randomized based on ankle thickness (Table 6). Commencing on day 18, randomized groups of arthritic rats (n=5 rats/group) received vehicle or 5, 20, or 50 mg/kg Example 2 BID by oral gavage. Vehicle consisted of an aqueous mixture containing 2% (v:v) N-methylpyrrolidone, 5% (v:v) glycerine, and 20% (w:v) captisol. Treatment continued daily through the morning of day 26. […]

T1 sequence (P14780 20-707 limits assumed): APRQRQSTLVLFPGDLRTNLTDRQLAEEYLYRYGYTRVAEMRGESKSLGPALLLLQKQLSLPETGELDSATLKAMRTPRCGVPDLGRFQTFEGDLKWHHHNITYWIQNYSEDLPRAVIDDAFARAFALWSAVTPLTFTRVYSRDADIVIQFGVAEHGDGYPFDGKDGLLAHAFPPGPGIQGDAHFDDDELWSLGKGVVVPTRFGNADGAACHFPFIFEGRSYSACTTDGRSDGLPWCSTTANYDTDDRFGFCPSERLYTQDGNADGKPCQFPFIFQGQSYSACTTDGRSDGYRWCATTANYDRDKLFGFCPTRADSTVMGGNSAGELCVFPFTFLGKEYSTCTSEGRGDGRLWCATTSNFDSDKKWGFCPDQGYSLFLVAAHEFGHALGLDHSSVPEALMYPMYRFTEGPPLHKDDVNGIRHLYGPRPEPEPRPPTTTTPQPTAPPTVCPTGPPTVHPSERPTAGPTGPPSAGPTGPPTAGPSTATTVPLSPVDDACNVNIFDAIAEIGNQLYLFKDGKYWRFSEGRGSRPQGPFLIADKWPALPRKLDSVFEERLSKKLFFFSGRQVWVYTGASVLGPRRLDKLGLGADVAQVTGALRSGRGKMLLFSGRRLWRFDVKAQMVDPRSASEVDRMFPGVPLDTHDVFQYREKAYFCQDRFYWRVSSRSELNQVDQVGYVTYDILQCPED

`Cc1nc(C)c(-c2csc(Nc3cc(S(N)(=O)=O)ccc3OC(C)C)n2)s1` [Example 2, 3-(2′,4′-Dimethyl-[4,5′]bithiazolyl-2-ylamino)-4-isopropoxy-benzenesulfonamide.HBr]: in assay [1], the “Percent of total signal 80 kD” value was determined as 7%, the “Percent of total signal 86 kD” value is recorded as 47%, the “Percent of total signal 100 kD” value came to 46% and the “Signal Total” value is listed as 91346 INT * mm^2. In addition, in assay [2], the “Effect on ankle thickness measurements” value is on record as “dose-dependent decrease” and the “Effect on clinical score measurements” value was “dose dependent decrease”.

The record behind these values is patent publication US8753857B2, “Crystal structure of the pro form of a matrix metalloproteinase and an allosteric processing inhibitor” (Janssen Pharmaceutica N.V., priority 2011, dated 2014).
